From ChEMBL document CHEMBL1155140, “Differentially expressed proteins in derivatives of Candida albicans displaying a stable histatin 3-resistant phenotype” (2007)
Activity calls are given as the source filed them. The rule behind the calls is not given here.

Experiments:
Candida albicans [1] = assay: Antifungal activity against histatin-resistant Candida albicans CAHR04U at 0.2 mg/mL; type: functional
Candida albicans [2] = assay: Antifungal activity against histatin-resistant Candida albicans CAHR04B at 0.2 mg/mL; type: functional
Candida albicans [3] = assay: Reduction of ATP release in histatin-resistant Candida albicans CAHR04A at 0.2 mg/mL after 45 mins
Candida albicans [4] = assay: Antifungal activity against histatin-resistant Candida albicans CAHR1 at 0.2 mg/mL measured after storage at -80 degC for 1 year; type: functional
Candida albicans [5] = assay: Reduction of ATP release in histatin-resistant Candida albicans CAHR04B at 0.2 mg/mL after 45 mins
Candida albicans [6] = assay: Antifungal activity against histatin-resistant Candida albicans CAHR4 at 0.2 mg/mL measured after storage at -80 degC for 1 year; type: functional
Candida albicans [7] = assay: Antifungal activity against histatin-resistant Candida albicans CAHR04A at 0.2 mg/mL; type: functional
Candida albicans [8] = assay: Reduction of ATP release in histatin-resistant Candida albicans CAHR04U at 0.2 mg/mL after 45 mins
Candida albicans [9] = assay: Antifungal activity against histatin-susceptible Candida albicans CA132A at 0.2 mg/mL; type: functional
Candida albicans [10] = assay: Reduction of TRK1 gene expression in histatin-resistant Candida albicans CAHR04B; type: functional
Candida albicans [11] = assay: Reduction of TRK1 gene expression in histatin-resistant Candida albicans CAHR04A; type: functional

Question: How did the Activity (Candida albicans [1]) turn out when `CC(C)C[C@H](NC(=O)[C@H](Cc1ccc(O)cc1)NC(=O)[C@H](CC(N)=O)NC(=O)[C@H](CO)NC(=O)[C@H](CCCNC(=N)N)NC(=O)[C@H](Cc1ccc(O)cc1)NC(=O)CNC(=O)[C@H](CCCNC(=N)N)NC(=O)[C@H](Cc1cnc[nH]1)NC(=O)[C@H](CO)NC(=O)[C@H](Cc1cnc[nH]1)NC(=O)[C@H](Cc1cnc[nH]1)NC(=O)[C@H](CCCCN)NC(=O)[C@H](CCC(=O)O)NC(=O)[C@H](Cc1cnc[nH]1)NC(=O)[C@H](Cc1ccccc1)NC(=O)[C@H](CCCCN)NC(=O)[C@H](CCCNC(=N)N)NC(=O)[C@H](CCCCN)NC(=O)[C@H](Cc1ccc(O)cc1)NC(=O)CNC(=O)[C@H](Cc1cnc[nH]1)NC(=O)[C@H](Cc1cnc[nH]1)NC(=O)[C@H](CCCNC(=N)N)NC(=O)[C@H](CCCCN)NC(=O)[C@H](C)NC(=O)[C@H](Cc1cnc[nH]1)NC(=O)[C@H](CO)NC(=O)[C@@H](N)CC(=O)O)C(=O)N[C@@H](Cc1ccc(O)cc1)C(=O)N[C@@H](CC(=O)O)C(=O)N[C@@H](CC(N)=O)C(=O)O` [Histatin 3] was run?
Answer: 17.9%

Question: What about the Activity (Candida albicans [2]) of the same compound?
Answer: 17.9%

Question: And the Activity (Candida albicans [3])?
Answer: Active

Question: What about the Activity (Candida albicans [4]) of the same compound?
Answer: 86.4%

Question: What about the Activity (Candida albicans [5]) of the same compound?
Answer: Active

Question: What about the Activity (Candida albicans [6]) of the same compound?
Answer: 94.4%

Question: And the Activity (Candida albicans [7])?
Answer: 17.9%

Question: And the Activity (Candida albicans [8])?
Answer: Active

Question: What about the Activity (Candida albicans [9]) of the same compound?
Answer: 91.7%

Question: And the “fold change (FC)” value (Candida albicans [10])?
Answer: 1.6

Question: And the Activity (Candida albicans [11])?
Answer: Active

Question: And the “fold change (FC)” value (Candida albicans [11])?
Answer: 2
